Assay results taken from US20240238297A1, “USES AND METHODS FOR RECURRENT PRIMARY CNS NEOPLASMS” (CHIMERIX, INC., priority 2021, published 2024).
Where a name gives a salt, the structure may show the parent alone.

Key:
[1] = solubility in water, ONC-201 dihydrochloride salt vs free base; format: physicochemical
Procedure: (§1) Dihydrochloride salts of compounds within the class of impiridones of which ONC-206 is a member, achieve unexpected technical effects. […] In addition, after two months at 25° C. and at 40° C., the percentage of impurities in the dihydrochloride salt is not detected and 3%, respectively; while for the free base the corresponding the percentage of impurities is 20% and 24%, respectively. This technical effect appears to extend to the class of impiridones.

[2] = stability: percentage of impurities after two months; format: physicochemical
Procedure: as §1

[3] = tested on: diffuse midline glioma, H3 K27M-mutant; conditions: patients with DMG H3K27M; cited from earlier work
[4] = tested on: high grade gliomas; conditions: advanced cancer patients; cited from earlier work
[5] = tested on: endometrial cancer; conditions: advanced cancer patients; cited from earlier work
[6] = pharmacokinetics/toxicokinetics in dogs; conditions: dog, in vivo

## Cc1ccccc1CN1C(=O)C2=C(CCN(Cc3ccccc3)C2)N2CCN=C12 [ONC-201 dihydrochloride salt, 7-benzyl-4-(2-methylbenzyl)-2,4,6,7,8,9-hexahydroimidazo[1,2-a]pyrido[3,4-e]pyrimidin-5(1H)-one]
[1]
  solubility in water: greater than 50 mg/mL
[2]; after two months at 25° C.
  percentage of impurities: not detected
[2]; after two months at 40° C.
  percentage of impurities: 3%

## Cc1ccccc1CN1C(=O)C2=C(CCN(Cc3ccccc3)C2)N2CCN=C12 [ONC-201 free base, 7-benzyl-4-(2-methylbenzyl)-2,4,6,7,8,9-hexahydroimidazo[1,2-a]pyrido[3,4-e]pyrimidin-5(1H)-one]
[1]
  solubility in water: less than 1 mg/mL
[2]; after two months at 25° C.
  percentage of impurities: 20%
[2]; after two months at 40° C.
  percentage of impurities: 24%

## Cc1ccccc1CN1C(=O)C2=C(CCN(Cc3ccccc3)C2)N2CCN=C12 [ONC201, 7-benzyl-4-(2-methylbenzyl)-2,4,6,7,8,9-hexahydroimidazo[1,2-a]pyrido[3,4-e]pyrimidin-5(1H)-one]
[3]
  tumor response in patients: induced durable tumor regressions
[4]
  RANO response: several patients achieved a RANO response
[5]
  PFS compared to historical control: several patients experienced prolonged PFS

## O=C1C2=C(CCN(Cc3ccccc3)C2)N2CCN=C2N1Cc1ccc(F)cc1F [ONC206, 7-benzyl-4-(2,4-difluorobenzyl)-2,4,6,7,8,9-hexahydroimidazo[1,2-a]pyrido[3,4-e]pyrimidin-5(1H)-one]
[6]; beagle
  half-life: 0.7 to 7.1 h
[6]; both, Beagle, po
  CL/F: 83.3 to 1680 mL/min/kg
  Vd/F: 25.2 to 259 L/kg
  half-life: 0.7 to 7.1 h
